Results as given in PMC11643744, “New Conjugates of Vancomycin with Cell-Penetrating Peptides—Synthesis, Antimicrobial Activity, Cytotoxicity, and BBB Permeability Studies” (Molecules, 2024).
Values after ≈ are worked out from the molar mass of the structure shown. Values joined by “and” are separate entries in the source; they are usually repeats but may differ in a detail not shown here. Equal entries are not always repeated. Where two headings read alike, the source gives them in different places.

What was measured:
[1] = system: Pseudomonas aeruginosa (ATCC 27853); experiment: Broth microdilution MIC, P. aeruginosa reference strain; assay type: cell-based
Method: (§1) The antimicrobial activity of the synthesized compounds was evaluated against four reference bacterial strains: Staphylococcus aureus (ATCC 29213), Enterococcus faecalis (ATCC 29212), Escherichia coli (ATCC 25922), and Pseudomonas aeruginosa (ATCC 27853), which are commonly used for determining antibacterial activity. In addition, two clinical strains, S. aureus (MRSA) and E. faecium (VRE), were included in the study. The bacterial strains were inoculated from Selectrol discs (Biomaxima SA, Lublin, Poland) onto blood agar (Graso Biotech, Starogard Gdański, Poland) and incubated at 37 °C for 24 h. Before testing, the strains were cultured aerobically on blood agar at 37 °C for 24 h.
The susceptibility of microorganisms to the synthesized compounds was determined using the broth microdilution assay, following the guidelines outlined by CLSI [30]. The final concentrations of the tested compounds in Mueller–Hinton broth, in 96-well plates (VWR International Sp. z o.o., Gdańsk, Poland), ranged from 0.125 to 256 mg/L. To prepare the bacterial suspension, bacteria from the overnight culture on blood agar were diluted in sterile 0.9% NaCl to achieve a turbidity equivalent to a 0.5 McFarland standard. […] The results are expressed as the MIC of the tested compounds, which was defined as the lowest concentration at which no visible growth of bacteria (no turbidity) was observed. […]

[2] = system: S. aureus (ATCC 29213); experiment: Checkerboard assay, interaction of Van with CPP components (FICI); assay type: cell-based, Staphylococcus aureus; conditions: Van alone
Method: To determine possible interactions between Van and the CPP components of the conjugates, fractional inhibitory concentrations (FICs) were calculated for the tested compounds (Prop-Tat (47–57) and Prop-Arg9) using the following formula: FICA = MICA(with B)/MICA, FICB = MICB(with A)/MICB. To determine MICA(with B) and MICB(with A), a checkerboard assay was carried out in 96-well microtiter plates. Each test was performed in duplicate. The concentration range was 1.07 to 8 µg/mL for Van, 2.13 to 16 µg/mL for Prop-Tat (47–58), and 8.54 to 64 µg/mL for Prop-Arg9. Aliquots of 5 μL of bacterial suspension (at a concentration of 10^7 CFU/mL) were added to each well of the 96-well plate containing 100 μL of test compounds in Mueller–Hinton broth. The bacterial strain used was S. aureus (ATCC 29213). The plates were then incubated at 37 °C for 24 h. […] FIC values for Van, Prop-Tat (47–57) and Prop-Arg9 were calculated as follows: FICVan = MICVan+Prop-Tat (47–57) or FICVan = MICVan+Prop-Arg9 divided by MIC of Van alone, FICProp-Tat (47–57) = MICProp-Tat (47–57)+Van divided by MIC of Prop-Tat (47–57) alone, and FICProp-Arg9 = MICProp-Arg9+Van divided by MIC of Prop-Arg9 alone. The FIC indexes (FICIs) were calculated for the tested compounds as the sum of FICA and FICB.

[3] = system: E. faecalis ATCC 29212; experiment: microbe, parasite or virus in culture; assay type: cell-based, Enterococcus faecalis; conditions: Enterococcus faecalis
Method: as §1
(§2) The susceptibility of microorganisms to the synthesized compounds was determined using the broth microdilution assay, following the guidelines outlined by CLSI [30]. The final concentrations of the tested compounds in Mueller–Hinton broth, in 96-well plates (VWR International Sp. z o.o., Gdańsk, Poland), ranged from 0.125 to 256 mg/L. To prepare the bacterial suspension, bacteria from the overnight culture on blood agar were diluted in sterile 0.9% NaCl to achieve a turbidity equivalent to a 0.5 McFarland standard. The adjusted inoculum suspension was further diluted in Mueller–Hinton broth so that after inoculation, each well contained approximately 5 × 10^5 CFU/mL. Aliquots (5 µL) of bacterial suspension were added to each solution. The sterility control (containing the broth) and the growth control (containing the reference strain in broth without the tested compound) were also set up. The antibiotics vancomycin and gentamicin were used as a control. The plates were incubated at 37 °C under aerobic conditions. The results are expressed as the MIC of the tested compounds, which was defined as the lowest concentration at which no visible growth of bacteria (no turbidity) was observed. The assay was performed in triplicate.

[4] = system: E. faecium VRE (clinical isolate UCK 7979384); experiment: microbe, parasite or virus in culture; assay type: cell-based; conditions: Enterococcus faecium, VRE, read-out: MIC E. faecium VRE
Method: as §1, §2

[5] = system: normal human fibroblasts, BJ line (CRL-2522); experiment: Neutral red cytotoxicity assay; conditions: 24 h
Method: Normal human fibroblasts, BJ line (CRL-2522™), Eagle’s Minimum Essential Medium (EMEM), and fetal bovine serum (FBS) were obtained from ATCC (Manassas, VA, USA). Cells were grown following ATCC guidelines in an EMEM medium supplemented with 10% FBS at 37 °C in a humidified atmosphere of 95% air and 5% CO2 in a HeraCell 150 incubator (Heraeus, Hanau, Germany).
The assay was performed as per previously published protocols with slight modifications. In brief, BJ cells were plated in 96-well tissue culture plates (Nest Scientific Biotechnology, Wuxi, China) at a density of 6 × 10^3 cells per well and allowed to attach for 24 h in EMEM supplemented with 10% FBS. After the incubation period, the medium was removed, and 10% dimethyl sulfoxide (DMSO)-treated cells (Sigma-Aldrich, St. Louis, MO, USA) were used as a positive control, while nontreated cells served as a negative control.
The cells were treated with peptides suspended in EMEM medium supplemented with 10% FBS and incubated for 24 h at 37 °C in a humidified atmosphere of 95% air and 5% CO2. After the incubation, the supernatants were discarded and replaced with 100 µL of non-supplemented EMEM containing 0.33% neutral red (Sigma-Aldrich) diluted 1:40. The cells were incubated for an additional 2 h at 37 °C. Following incubation, the neutral red medium was removed, and the cells were washed with 100 µL of phosphate-buffered saline (PBS) per well.
To extract the dye into the solution, the cells were treated with 150 µL of a solution containing 50% ethanol (Alchem, Torun, Poland), 49% distilled H2O, and 1% acetic acid (Alchem, Torun, Poland) and incubated under shaking at 37 °C for 10 min. Absorbance was measured at 540 nm using a Synergy H1 plate reader (BioTek Instruments, Winooski, VT, USA). The assay was performed in triplicate to ensure reproducibility.

[6] = PAMPA-BBB assay; conditions: 20 h incubation, mean ± SEM
Source text: This assay utilized a 96-well plate assembly consisting of a filter plate pre-coated with polar brain lipids (donor plate) and a receiver plate (acceptor plate). The phospholipid mixture used to coat the membrane was extracted from porcine polar brain lipids, with the following composition: 12.6% phosphatidylcholine, 33.1% phosphatidylethanolamine, 18.5% phosphatidylserine, 4.1% phosphatidylinositol, 0.8% phosphatidic acid, and 30.9% of other compounds, including cerebrosides, sulfatides, and pigments.
In each well of the donor filtration plate (Multiscreen Filter Plate, PVDF with a pore size of 0.45 µm), 5 µL of the phospholipid mixture in n-dodecane (20 mg/mL) was carefully applied to form the artificial membrane. After coating, 200 µL of phosphate-buffered saline (PBS at pH 7.4) containing 5% dimethyl sulfoxide (DMSO) as a co-solvent, and the test compound (at a concentration of 20 µM) was added to each well of the donor plate (in triplicate). […] The plate lid was then replaced and the resulting assembled donor–acceptor plates were incubated at room temperature for 20 h. After this time, the donor plate was removed and solutions from each well of both acceptor and donor plates were collected for further analysis. The concentrations of the tested compounds were determined by LC-MS. The analysis was conducted by UHPLC-MS system (Shimadzu Nexera X2 with LCMS-2020 detector) using a ReproSil Pure 120 ODS-3 column (Dr. Maisch GmbH, 100 × 2 mm, 2.4 µm particle size) with several gradients of ACN with 0.1% FA and 0.05% TFA at a flow rate of 0.3 mL/min. The eluted solution was monitored by an ESI-MS detector operated in a selected ion monitoring mode (SIM). […] CE=CD×VD+CA×VA/VD+VA

[7] = system: S. aureus ATCC 29213; experiment: microbe, parasite or virus in culture; assay type: cell-based, Staphylococcus aureus; conditions: Staphylococcus aureus
Method: as §1, §2

[8] = system: S. aureus MRSA (clinical isolate no 203); experiment: microbe, parasite or virus in culture; assay type: cell-based, Staphylococcus aureus; conditions: Staphylococcus aureus, read-out: MIC S. aureus MRSA
Method: as §1, §2

[9] = system: E. coli ATCC 25922; experiment: microbe, parasite or virus in culture; assay type: cell-based, Escherichia coli; conditions: Escherichia coli, ATCC25922; reference strain
Method: as §1, §2

MIC ([1]; Pseudomonas aeruginosa, ATCC27853, reference strain) | MIC ([3]; ATCC29212, reference strain, read-out: MIC E. faecalis ATCC 29212) | MIC ([4]; vancomycin-resistant clinical isolate UCK 7979384) | MIC [9] | MIC ([7]; ATCC29213, reference strain, read-out: MIC S. aureus ATCC 29213) | MIC ([8]; methicillin-resistant clinical isolate no 203) | SMILES | inhibitory activity against P. aeruginosa ([1]; at the concentrations tested) | MICA [2] | MIC ([3]; ATCC29212, read-out: MIC E. faecalis ATCC 29212) | MIC [4] | concentration above which cytotoxicity was shown [5] | effect on cell viability ([5]; at concentrations up to 4 µg/mL) | R, mass retention [6] | MIC ([7]; ATCC29213, read-out: MIC S. aureus ATCC 29213) | MIC [8]
 |  |  |  |  |  | CN[C@H](CC(C)C)C(=O)N[C@H]1C(=O)N[C@@H](CC(N)=O)C(=O)N[C@H]2C(=O)N[C@H]3C(=O)N[C@H](C(=O)N[C@H](C(=O)O)c4cc(O)cc(O)c4-c4cc3ccc4O)[C@H](O)c3ccc(c(Cl)c3)Oc3cc2cc(c3O[C@@H]2O[C@H](CO)[C@@H](O)[C@H](O)[C@H]2O[C@H]2C[C@](C)(N)[C@H](O)[C@H](C)O2)Oc2ccc(cc2Cl)[C@H]1O [Vancomycin] | resistant | 2 µg/mL | 8 µg/mL and 5.38 µM | > 256 µg/mL and > 172 µM | above 16 µg/mL | did not substantially affect cell viability | 11.3 ± 3.4% | 2 µg/mL and 1.35 µM | 1.5 µg/mL and 1.01 µM
4.08 µM (≈ 1.95 µg/mL) | 7.8 µg/mL and 16.3 µM | 7.8 µg/mL and 16.3 µM | 1.95 µg/mL and 4.08 µM | 0.24 µg/mL and 0.5 µM | 0.48 µg/mL and 1 µM | CNC(C)C1CCC(N)C(OC2C(N)CC(N)C(OC3OCC(C)(O)C(NC)C3O)C2O)O1 (stereo not drawn) [Gentamicin] |  |  |  |  |  |  |  |  | 
